In patent publication US20170107482A1, “ANIMAL CELL REGENERATION SPEED CONTROLLING METHOD AND ANIMAL CELL REGENERATION SPEED CONTROLLER” (TOYOTA BOSHOKU KABUSHIKI KAISHA, priority 2015, published 2017):

System: Planarians (Dugesia japonica)
Assay: Animal cell regeneration experiment (ii): head (eye) regeneration of cut planarians after immersion in Azakenpaullone
Type: in vivo
Details: 0.5 μM, 24 h immersion; for individuals died and disappeared before regeneration: among the total nine individuals
Experimental: Hereinafter, the present invention will be specifically described using Examples. In the following Examples 1 and 2, regeneration experiment was conducted using Planarians (Dugesia japonica) as one kind of flatworm.
Thereafter, the planarians belonging to Groups A and B were respectively placed in petri dishes, so that the amount of water per planarian was 2.5 mL, in a thermostat bath set to a temperature of 13° C. The planarians were grown for 14 days ([…]) under a condition and in an environment such that water was changed every three days. The respective regeneration states of their heads in this period were observed over time with an optical microscope every 24 hours after cutting to evaluate the degree of regeneration after 14 days had elapsed based on the following three references (see Teresa Adel et al., Dev Genes Evol (2008) 218:89-103, as for the references for the degree of regeneration). The planarians ranked as “regeneration degree 2” or “regeneration degree 3” were determined to “have been regenerated,” and those ranked as “regeneration degree 1” were determined to “be unregenerated.” The number of planarians determined to “have been regenerated” was counted over time, and the result thereof is indicated in Table 1.
“Regeneration degree 1”: Eyes being developed cannot be identified.
“Regeneration degree 2”: Eyes being developed can be identified.
“Regeneration degree 3”: Eyes can be identified.
Firstly, planarians having an equivalent size were selected, and divided into Group C (n=9) and Group D (n=9). For the planarians belonging to Group C, the living bodies were cut near the center at a timing in the same time zone as that for Group A in Example 1 (namely, immediately after the RGA turned downward from the maximum value immediately before) (see FIG. 2).
For the planarians (n=9) belonging to Group D, the living bodies were cut near the center at a timing in the same time zone as that for Group B in Example 1 (namely, immediately after the RGA turned upward from the minimum value immediately before) (see FIG. 2).
Thereafter, the planarians belonging to Groups C and D were respectively immersed for 24 hours in a solution of Azakenpaullone that is a drug suppressing normal differentiation at a concentration of 0.5 μM, then placed in petri dishes, so that the amount of water per planarian was 2.5 mL, in a thermostat bath set to a temperature of 13° C., and were grown for 15 days ([…]) under a condition and in an environment such that water was changed every three days. The respective regeneration states of their heads were observed over time with an optical microscope every 24 hours after cutting to evaluate the degree of regeneration after 15 days had elapsed in the same manner as in Example 1. At this time, the planarians were determined as to whether they “had been regenerated” or “were unregenerated” in the same manner as in Example 1. The number of planarians determined to “have been regenerated” was counted over time, and the result thereof is indicated in Table 2.
The treating method using Azakenpaullone was referred to a description of Teresa Adel et al., Dev Genes Evol 218(2008) 89-103.

`O=C1Cc2c([nH]c3ccc(Br)cc23)-c2ncccc2N1` [Azakenpaullone] was tested, and the “Number of planarians determined to have been regenerated (cumulative)” value (“Number of planarians determined” for short) (Group C (n=9), cut immediately after RGA turned downward from maximum, 0 h after cutting) was 0, the “Number of planarians determined” value (Group C (n=9), cut immediately after RGA turned downward from maximum, 24 h after cutting) was 0 and the “Number of planarians determined” value (Group C (n=9), cut immediately after RGA turned downward from maximum, 48 h after cutting) was 0. For the same compound, the “Number of planarians determined” value (Group C (n=9), cut immediately after RGA turned downward from maximum, 72 h after cutting) was 0, the “Number of planarians determined” value (Group C (n=9), cut immediately after RGA turned downward from maximum, 96 h after cutting) was 0 and the “Number of planarians determined” value (Group C (n=9), cut immediately after RGA turned downward from maximum, 120 h after cutting) was 0. For the same compound, the “Number of planarians determined” value (Group C (n=9), cut immediately after RGA turned downward from maximum, 144 h after cutting) was 0, the “Number of planarians determined” value (Group C (n=9), cut immediately after RGA turned downward from maximum, 168 h after cutting) was 0 and the “Number of planarians determined” value (Group C (n=9), cut immediately after RGA turned downward from maximum, 192 h after cutting) was 0. For the same compound, the “Number of planarians determined” value (Group C (n=9), cut immediately after RGA turned downward from maximum, 216 h after cutting) was 1, the “Number of planarians determined” value (Group C (n=9), cut immediately after RGA turned downward from maximum, 240 h after cutting) was 2 and the “Number of planarians determined” value (Group C (n=9), cut immediately after RGA turned downward from maximum, 264 h after cutting) was 2. For the same compound, the “Number of planarians determined” value (Group C (n=9), cut immediately after RGA turned downward from maximum, 288 h after cutting) was 3, the “Number of planarians determined” value (Group C (n=9), cut immediately after RGA turned downward from maximum, 312 h after cutting) was 4 and the “Number of planarians determined” value (Group C (n=9), cut immediately after RGA turned downward from maximum, 336 h after cutting) was 4. For the same compound, the “Number of planarians determined” value (Group C (n=9), cut immediately after RGA turned downward from maximum, 360 h after cutting) was 5, the “individuals died and disappeared before regeneration” value (Group C, cut immediately after RGA turned downward) was “four” and the “Number of planarians determined” value (Group D (n=9), cut immediately after RGA turned upward from minimum, 0 h after cutting) was 0. For the same compound, the “Number of planarians determined” value (Group D (n=9), cut immediately after RGA turned upward from minimum, 24 h after cutting) was 0, the “Number of planarians determined” value (Group D (n=9), cut immediately after RGA turned upward from minimum, 48 h after cutting) was 0 and the “Number of planarians determined” value (Group D (n=9), cut immediately after RGA turned upward from minimum, 72 h after cutting) was 0. The “Number of planarians determined” value (Group D (n=9), cut immediately after RGA turned upward from minimum, 96 h after cutting) was 0, the “Number of planarians determined” value (Group D (n=9), cut immediately after RGA turned upward from minimum, 120 h after cutting) was 0 and the “Number of planarians determined” value (Group D (n=9), cut immediately after RGA turned upward from minimum, 144 h after cutting) was 0. For the same compound, the “Number of planarians determined” value (Group D (n=9), cut immediately after RGA turned upward from minimum, 168 h after cutting) was 0, the “Number of planarians determined” value (Group D (n=9), cut immediately after RGA turned upward from minimum, 192 h after cutting) was 0 and the “Number of planarians determined” value (Group D (n=9), cut immediately after RGA turned upward from minimum, 216 h after cutting) was 0. For the same compound, the “Number of planarians determined” value (Group D (n=9), cut immediately after RGA turned upward from minimum, 240 h after cutting) was 6, the “Number of planarians determined” value (Group D (n=9), cut immediately after RGA turned upward from minimum, 264 h after cutting) was 6 and the “Number of planarians determined” value (Group D (n=9), cut immediately after RGA turned upward from minimum, 288 h after cutting) was 6. The “Number of planarians determined” value (Group D (n=9), cut immediately after RGA turned upward from minimum, 312 h after cutting) was 6, the “Number of planarians determined” value (Group D (n=9), cut immediately after RGA turned upward from minimum, 336 h after cutting) was 6 and the “Number of planarians determined” value (Group D (n=9), cut immediately after RGA turned upward from minimum, 360 h after cutting) was 6. The “individuals died and disappeared before regeneration” value (Group D, cut immediately after RGA turned upward) was “three”.
